From PMC7918775, “Quality by Design Applied Development of Immediate-Release Rabeprazole Sodium Dry-Coated Tablet” (Pharmaceutics, 2021)
“Also recorded” adds a separate entry of the source. Like-named read-outs stand apart in the source and are kept apart here.

How the values were obtained:
[1] = Stability of APIs in solution at various pH (content, appearance); format: physicochemical
[2] = Rabeprazole sodium/excipient compatibility study (appearance, impurities by HPLC); format: physicochemical; conditions: 1:1 (w/w) mixtures, HPLC impurity test; threshold 3.5%
Description: (§1) The latter reflects the proportions of APIs in each commercialized tablet. The prepared samples were stored in a stability chamber for 4 weeks at room temperature of 25 ± 2 °C/ 60 ± 5% RH and under acceleration conditions of 40 ± 2 °C/ 75 ± 5% RH, respectively. […] If none were detected, an additional impurity test was performed to confirm compatibility.

[3] = API-API compatibility study (impurities by HPLC); format: physicochemical
Description: as §1

physchem = conditions: water, thermodynamic from solid
Description: The solubility of each component in deionized water, solvents (ethanol, methanol), citric acid/sodium citrate buffer, and pH buffer was evaluated.
Each vial contained 10 mg rabeprazole sodium, and 200 µL of each solvent was slowly added. […] The solutions were filtered and then diluted 2000× to measure the quantity of rabeprazole sodium dissolved in the solution. Equilibrium or final rabeprazole sodium solubility was calculated from the HPLC peak. Peak area of sample solution × 100 × 100/Average of standard solution peak area ×1000

[4] = cited from earlier work
[5] = cited from earlier work; remark: listed apart in the source
[6] = Description: The solution was then stirred at 37 ± 2 °C for 1 h and filtered by polyvinylidene fluoride (PVDF) membrane filter. Next, 50 mL of the filtrate was obtained and titrated with hydrochloric acid with 0.1 M sodium hydroxide solution (pH measurement method) with an endpoint of pH 3.5.

For `COCCCOc1ccnc(C[S+]([O-])c2nc3ccccc3[nH]2)c1C` (stereo not drawn) [Rabeprazole sodium], the “Rabeprazole sodium content measured according to pH” value ([1]; pH 1.2 to 6.0) was 30 to 60%, the “Time stable in solution” value ([1]; pH 8.0) was ~ 26 h and the Appearance in buffers ([1]; range of pH 1.2–12.0) was “changed in buffers with pH < 7.0; also recorded: transparent in buffers with pH > 8.0”. For the same molecule, the “Concentration of decomposition products” value [2] was “no decomposition products were formed”, the “Impurities, 4 Weeks” value ([3]; Accelerated Condition 40 °C/75% RH) was 1.31% and the “Impurities, 4 Weeks” value ([3]; Room Temperature 25 °C/60% RH) was 0.07%. For the same molecule, the “Impurities, Initial” value ([3]; initial) was 0.06%, the solubility (physchem) was over 110 mg/mL and the “Time to reach maximum plasma concentration” value ([4]; Adolescents, Tablets) was 3.3 to 4.1 h. For the same molecule, the “Time to reach maximum plasma concentration” value ([4]; Adults, Capsule) was 1 to 6.5 h, the “Time to reach maximum plasma concentration” value ([4]; Adults, Tablets) was 2 to 5 h and the Bioavailability ([4]; Tablets) was about 52%. For the same molecule, the “Half-life (dose dependent)” value ([4]; adolescents) was 33 to 60 min, the “Half-life (dose dependent)” value ([4]; adults) was 60 to 120 min and the Action onset time ([4]; in vivo) was at most 1 h. The Duration ([4]; in vivo) was 24 h, the “Excretion: urine” value ([4]; in vivo) was 90% and the Metabolism ([4]; in vivo) was “metabolized by CYP3A and 2C19 to inactive metabolites in the liver”. The Protein binding rate ([4]; in vivo) was 96.3%, the “Delay of absorption by food” value ([4]; oral, with food) was “up to 4 h or more” and the “Absorption: Oral” value ([4]; oral) was “well absorbed within 1 h”. The Half-life increase ([4]; patients with mild to moderate hepatic impairment) was 2–3 times, the solubility ([5]; Water) was 10 mg/mL (Water) and the Decomposition half-life ([5]; aqueous solutions with pH < 3.0) was under 10 min. The “pKa (Strongest Acidic)” value [5] was 9.35 and the “pKa (Strongest Basic)” value [5] was 4.24.
In the case of `O=C([O-])O.[Na+]` [Sodium bicarbonate], the “Acid-neutralizing capacity (0.1 M HCl consumption)” value (“Acid-neutralizing capacity” for short) ([6]; 200 mg sodium bicarbonate) is reported as 38 mL, the “Acid-neutralizing capacity” value ([6]; 300 mg sodium bicarbonate) is reported as 42 mL and the “Acid-neutralizing capacity” value ([6]; 400 mg sodium bicarbonate) is reported as 45 mL. For the same molecule, the “Acid-neutralizing capacity” value ([6]; 500 mg sodium bicarbonate) was 49 mL, the “Acid-neutralizing capacity” value ([6]; 600 mg sodium bicarbonate) was 57 mL and the “Acid-neutralizing capacity” value ([6]; 700 mg sodium bicarbonate) was 68 mL. The “Acid-neutralizing capacity” value ([6]; 800 mg sodium bicarbonate) was 79 mL, the “Acid-neutralizing capacity” value ([6]; 900 mg sodium bicarbonate) was 84 mL and the “Acid-neutralizing capacity” value ([6]; 1000 mg sodium bicarbonate) was 89 mL. The Duration ([4]; Intravenous (IV)) was 0.13 to 0.167 h, the “Onset time of action” value ([4]; Intravenous (IV)) was “fast” and the “Excretion: urine” value ([4]; in vivo) was under 1%. For the same molecule, the Duration ([4]; oral) was 1 to 3 h, the “Onset time of action” value ([4]; oral) was 15 min and the “PKa (carbonic acid)” value ([5]; carbonic acid) was 6.351. For the same molecule, the PKa [5] was 10.329.
